# Measured values: article PMC10377586 (Biomolecules, 2023)
# Experiments:
# [1] = target: T1, human MAO-A (Homo sapiens, UniProt P21397); test: Amplex Red monoamine oxidase assay, MAO-A; type: biochemical; settings: for IC50: human recombinant MAO-A, read-out: MAO-A IC50 ± SEM; for inhibition at 1 µM: read-out: MAO-A % Inhibition ± SEM at 1 µM
# T1 construct: purchased Sigma Aldrich M7316
# T1 sequence (P21397 1-527): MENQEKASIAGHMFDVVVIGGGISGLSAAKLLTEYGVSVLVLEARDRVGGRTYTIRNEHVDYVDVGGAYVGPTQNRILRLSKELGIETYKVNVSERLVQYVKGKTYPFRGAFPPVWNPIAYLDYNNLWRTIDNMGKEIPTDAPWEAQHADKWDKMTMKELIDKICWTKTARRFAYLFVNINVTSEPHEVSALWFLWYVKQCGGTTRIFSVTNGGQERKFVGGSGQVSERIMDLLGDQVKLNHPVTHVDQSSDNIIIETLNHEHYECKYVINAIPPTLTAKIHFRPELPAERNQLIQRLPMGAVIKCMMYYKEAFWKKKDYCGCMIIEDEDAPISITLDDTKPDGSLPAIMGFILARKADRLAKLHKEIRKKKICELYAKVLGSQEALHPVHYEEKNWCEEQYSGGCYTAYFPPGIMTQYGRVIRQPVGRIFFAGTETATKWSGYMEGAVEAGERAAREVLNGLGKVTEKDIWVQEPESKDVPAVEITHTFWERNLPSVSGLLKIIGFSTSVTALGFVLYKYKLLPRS
# Procedure: The final compounds were evaluated in vitro for their human MAO-B (hMAO-B) inhibitory potencies, and selected structures were also investigated for human MAO-A (hMAO-A) inhibition.
# Inhibition activity of compounds at MAO enzyme isoforms was measured via a fluorometric method using the Amplex Red Monoamine Oxidase Assay (ThermoFisher Scientific, Waltham, MA, USA #A12214) in a 96-well plates. Human recombinant MAO-B and MAO-A enzymes (Sigma Aldrich, St. Louis, MO, USA #M7441 and #M7316) were used. The assays were conducted as previously described.
# [2] = target: T2, rat A2A (rA2A) ARs (Rattus norvegicus, UniProt P30543); test: Radioligand binding [3H]MSX-2, rat brain striatal membranes; settings: read-out: rA2A [3H]MSX-2 Ki ± SEM
# T2 construct: rat brain striatal membrane preparations for A2A AR assays; tissue Pel Freez; host or cells: rat brain striatum membranes
# Procedure: (§1) The final compounds were tested in radioligand binding assays to evaluate their affinity for all four ARs subtypes (see Table 2). Rat brain cortical membrane preparations were used as a source of rat A1 (rA1) ARs, and rat brain striatal membrane preparations served as a source of rat A2A (rA2A) ARs. For A2B- and A3AR assays, membrane preparations of Chinese hamster ovary (CHO) cells recombinantly expressing either human A2B (hA2B) or human A3 (hA3) ARs were employed.
# (§2) Adenosine receptor radioligand binding assays were performed as previously described using rat brain cortical membrane preparations for A1 and rat brain striatal membrane preparations for A2A AR assays. Frozen rat brains (unstripped) were obtained from Pel Freez, Rogers, AR, USA. For assays at human AR subtypes, cell membranes of CHO cells recombinantly expressing the respective receptor were used. The following compounds were employed as radioligands: A1: [^3H]2-chloro-N^6-cyclopentyladenosine ([^3H]CCPA); A2A: [^3H]3-(3-hydroxypropyl)-7-methyl-8-(m-methoxystyryl)-1-propargylxanthine ([^3H]MSX-2); A2B: [^3H]8-(4-(4-(4-chlorophenyl)piperazine-1-sulfonyl)phenyl)-1-propylxanthine ([^3H]PSB-603); A3: [^3H]phenyl-8-ethyl-4-methyl-(8R)-4,5,7,8-tetrahydro-1H-imidazo[2,1-i]purine-5-one ([^3H]PSB-11). Initially, a single high concentration of compound was tested (1 µM). For potent compounds, full concentration–inhibition curves were determined using six to ten different concentrations of test compound spanning three orders of magnitude. At least three independent experiments were performed. Data were analyzed using GraphPad PRISM program version 4.0 or higher (Graph Pad, San Diego, CA, USA).
# [3] = target: T3, rat A1 (rA1) ARs (Rattus norvegicus, UniProt P25099); test: Radioligand binding [3H]CCPA, rat brain cortical membranes; settings: read-out: rA1 [3H]CCPA Ki ± SEM
# T3 construct: using rat brain cortical membrane preparations for A1; tissue Pel Freez; host or cells: rat brain cortex membranes
# T3 sequence (P25099 1-326): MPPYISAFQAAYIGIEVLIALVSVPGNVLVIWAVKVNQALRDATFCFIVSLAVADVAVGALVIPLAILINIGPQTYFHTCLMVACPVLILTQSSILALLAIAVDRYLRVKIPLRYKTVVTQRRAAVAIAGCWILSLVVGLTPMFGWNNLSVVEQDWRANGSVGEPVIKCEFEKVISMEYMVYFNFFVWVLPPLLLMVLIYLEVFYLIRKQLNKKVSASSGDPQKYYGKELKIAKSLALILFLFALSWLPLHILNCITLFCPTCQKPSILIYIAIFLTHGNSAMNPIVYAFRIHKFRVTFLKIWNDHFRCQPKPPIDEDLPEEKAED
# Procedure: as §1, §2
# [4] = target: T4, human A3 (hA3) ARs (Homo sapiens, UniProt P0DMS8); test: Radioligand binding [3H]PSB-11, CHO cell membranes; settings: for Ki: CHO cell membranes, read-out: hA3 [3H]PSB-11 Ki ± SEM; for inhibition at 1 µM: read-out: hA3 [3H]PSB-11 % inhibition ± SEM at 1 µM
# T4 construct: expressed in transfected cells; host or cells: CHO cells (membranes)
# T4 sequence (P0DMS8 1-318): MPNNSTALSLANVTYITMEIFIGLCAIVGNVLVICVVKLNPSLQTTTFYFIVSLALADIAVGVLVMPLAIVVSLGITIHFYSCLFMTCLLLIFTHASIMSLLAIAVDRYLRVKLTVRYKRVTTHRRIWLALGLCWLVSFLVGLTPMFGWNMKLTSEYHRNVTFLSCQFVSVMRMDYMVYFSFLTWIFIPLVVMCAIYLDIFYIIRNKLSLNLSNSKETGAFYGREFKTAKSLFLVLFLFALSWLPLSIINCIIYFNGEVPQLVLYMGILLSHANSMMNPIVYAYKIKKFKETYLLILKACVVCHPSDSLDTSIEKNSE
# Procedure: as §1, §2
# T2 sequence (P30543 whole entry): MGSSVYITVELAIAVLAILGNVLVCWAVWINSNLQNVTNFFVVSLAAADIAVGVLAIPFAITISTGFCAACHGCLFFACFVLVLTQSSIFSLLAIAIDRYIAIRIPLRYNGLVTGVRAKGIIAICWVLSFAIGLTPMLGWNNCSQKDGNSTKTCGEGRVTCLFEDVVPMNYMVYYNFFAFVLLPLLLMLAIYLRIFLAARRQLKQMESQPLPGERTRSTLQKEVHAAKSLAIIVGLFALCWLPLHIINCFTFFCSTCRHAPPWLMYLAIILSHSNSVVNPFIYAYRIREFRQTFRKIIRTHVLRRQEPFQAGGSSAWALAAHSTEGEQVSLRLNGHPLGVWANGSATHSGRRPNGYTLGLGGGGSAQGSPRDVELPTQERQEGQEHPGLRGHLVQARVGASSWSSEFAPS
IC50 [1] [nM],Ki [2] [nM],Ki [3] [nM],Ki [4] [nM],inhibition at 1 µM [4] [%],inhibition at 1 µM [1] [%],Compound
692 ± 7,2220 ± 260,191 ± 30,> 1000,0,–,"CCCCCn1c(NCCc2ccc(O)c(O)c2)nc2c1c(=O)n(C)c(=O)n2C [Compound 11h, 8-((3,4-Dihydroxyphenethyl)amino)-1,3-dimethyl-7-pentyl-3,7-dihydro-1H-purine-2,6-dione]"
576 ± 68,3600 ± 290,455 ± 77,> 1000,7,–,"Cn1c(=O)c2c(nc(NCCc3ccc(O)c(O)c3)n2Cc2ccccc2)n(C)c1=O [Compound 11j, 7-Benzyl-8-((3,4-dihydroxyphenethyl)amino)-1,3-dimethyl-3,7-dihydro-1H-purine-2,6-dione]"
~1000,833 ± 81,130 ± 31,> 1000,25,57,"CCCn1c(=O)c2c(nc(NCCc3ccc(O)c(O)c3)n2CCC)n(CCC)c1=O [Compound 12, 8-((3,4-Dihydroxyphenethyl)amino)-1,3,7-tripropyl-3,7-dihydro-1H-purine-2,6-dione]"
> 1000,334 ± 52,53 ± 8,676 ± 143,–,43,"CCCCn1c(=O)c2c(nc3n2CCCN3CCc2ccc(O)c(O)c2)n(CCCC)c1=O [Compound 22, 1,3-Dibutyl-9-(3,4-dihydroxyphenethyl)-6,7,8,9-tetrahydropyrimido[2,1-f]purine-2,4(1H,3H)-dione]"
> 1000,1700 ± 260,304 ± 66,> 1000,0,38,"CCCCn1c(NCCc2ccc(O)c(O)c2)nc2c1c(=O)n(C)c(=O)n2C [Compound 11e, 7-Butyl-8-((3,4-dihydroxyphenethyl)amino)-1,3-dimethyl-3,7-dihydro-1H-purine-2,6-dione]"
256 ± 93,≥ 10000,≥ 10000,> 1000,-1,–,"Cn1c(=O)c2c(nc(NCCc3ccc(O)c(O)c3)n2CCc2ccccc2)n(C)c1=O [Compound 11k, 8-((3,4-Dihydroxyphenethyl)amino)-1,3-dimethyl-7-phenethyl-3,7-dihydro-1H-purine-2,6-dione]"
> 1000,8980 ± 150,1170 ± 380,> 1000,-4,44,"CCC(C)n1c(NCCc2ccc(O)c(O)c2)nc2c1c(=O)n(C)c(=O)n2C (centres unmarked) [Compound 11g, 7-(Sec-butyl)-8-((3,4-dihydroxyphenethyl)amino)-1,3-dimethyl-3,7-dihydro-1H-purine-2,6-dione]"
> 1000,6860 ± 770,1130 ± 180,> 1000,-6,42,"CC(C)Cn1c(NCCc2ccc(O)c(O)c2)nc2c1c(=O)n(C)c(=O)n2C [Compound 11f, 8-((3,4-Dihydroxyphenethyl)amino)-7-isobutyl-1,3-dimethyl-3,7-dihydro-1H-purine-2,6-dione]"
> 1000,4720 ± 930,730 ± 93,> 1000,5,33,"CCCn1c(NCCc2ccc(O)c(O)c2)nc2c1c(=O)n(C)c(=O)n2C [Compound 11c, 8-((3,4-Dihydroxyphenethyl)amino)-1,3-dimethyl-7-propyl-3,7-dihydro-1H-purine-2,6-dione]"
~1000,274 ± 81,70 ± 5,> 1000,26,61,"CCCn1c(=O)c2c(nc3n2CCCN3CCc2ccc(O)c(O)c2)n(CCC)c1=O [Compound 21, 9-(3,4-Dihydroxyphenethyl)-1,3-dipropyl-6,7,8,9-tetrahydropyrimido[2,1-f]purine-2,4(1H,3H)-dione]"
